Molecules are shown by their SMILES. Values after ≈ are worked out from the molar mass of the structure shown. Some results are limits rather than exact numbers.

Common to all, as to assay type: cell-based
For assay [1], the system named is S. aureus MP-12. In words: Broth dilution MIC determination (CLSI), S. aureus MP-12. As to conditions: Staphylococcus aureus, MP12; strain MP-12, broth dilution.
Assay [2] deals with E. coli MP-4. In words: Broth dilution MIC determination (CLSI), E. coli MP-4. The settings on record: Escherichia coli, MP4; strain MP-4, broth dilution; read-out: MIC E. coli MP-4.
Assay [3] concerns K. pneumoniae MP-546. Description: Broth dilution MIC determination (CLSI), K. pneumoniae MP-546. As to conditions: Klebsiella pneumoniae, MP546; strain MP-546, broth dilution.
For assay [4], the system named is P. aeruginosa MP-3. Description: Broth dilution MIC determination (CLSI), P. aeruginosa MP-3. As to conditions: Pseudomonas aeruginosa, MP3; strain MP-3, broth dilution.
Assay [5] relates to A. baumannii MP-15. Description: Broth dilution MIC determination (CLSI), A. baumannii MP-15. The settings on record: Acinetobacter baumannii, MP15; strain MP-15, broth dilution; read-out: MIC A. baumanii MP-15.

With `C=CCN1CC=C([C@H]2[C@@H](C)OC(=O)C(C)(C)C(=O)[C@H](C)[C@@H](O[C@@H]3O[C@H](C)C[C@H](N(C)C)[C@H]3O)[C@](C)(OC)C[C@@H](C)CN2C)CC1` [Compound 1, (2R,3S,6R,8R,9R,10R)-3-(1-Allyl-1,2,3,6-tetrahydropyridin-4-yl)-9-(((2S,3R,4S,6R)-4-(dimethylamino)-3-hydroxy-6-methyltetrahydro-2H-pyran-2-yl)oxy)-8-methoxy-2,4,6,8,10,12,12-heptamethyl-1-oxa-4-azacyclotridecane-11,13-dione], the MIC in assay [1], in assay [2], in assay [3], in assay [4] and in assay [5] was more than 32 µg/mL throughout.

For `CCC[N+]1(C)CC=C([C@H]2[C@@H](C)OC(=O)C(C)(C)C(=O)[C@H](C)[C@@H](O[C@@H]3O[C@H](C)C[C@H](N(C)C)[C@H]3O)[C@](C)(OC)C[C@@H](C)CN2C)CC1` (stereo partly drawn) [Compound 4, 4-((2R,3S,6R,8R,9R,10R)-9-(((2S,3R,4S,6R)-4-(dimethylamino)-3-hydroxy-6-methyltetrahydro-2H-pyran-2-yl)oxy)-8-methoxy-2,4,6,8,10,12,12-heptamethyl-11,13-dioxo-1-oxa-4-azacyclotridecan-3-yl)-1-methyl-1-propyl-1,2,3,6-tetrahydropyridin-1-ium], the MIC in assay [1], in assay [2], in assay [3], in assay [4] and in assay [5] was more than 32 µg/mL throughout.

With `CO[C@]1(C)C[C@@H](C)CN(C)[C@H](C2CC3CCC(C2)N3C(=O)CN(C)C)COC(=O)C(C)(C)C(=O)[C@H](C)[C@H]1O[C@@H]1O[C@H](C)C[C@H](N(C)C)[C@H]1O` (stereo partly drawn) [Compound 6, (3R,6R,8R,9R,10R)-9-(((2S,3R,4S,6R)-4-(dimethylamino)-3-hydroxy-6-methyltetrahydro-2H-pyran-2-yl)oxy)-3-(8-(dimethylglycyl)-8-azabicyclo[3.2.1]octan-3-yl)-8-methoxy-4,6,8,10,12,12-hexamethyl-1-oxa-4-azacyclotridecane-11,13-dione], the MIC in assay [1] is more than 32 µg/mL; in assay [2], 4 to 32 µg/mL (≈ 5.76 to 46 µM); in assay [3], 4 to 32 µg/mL (≈ 5.76 to 46 µM); in assay [4] it was more than 32 µg/mL; in assay [5] it was more than 32 µg/mL.

In the case of `CO[C@]1(C)C[C@@H](C)CN[C@H](C2CCN(C(C)C)CC2)COC(=O)C(C)(C)C(=O)[C@H](C)[C@H]1O[C@@H]1O[C@H](C)C[C@H](N(C)C)[C@H]1O` [Compound 7, (3R,6R,8R,9R,10R)-9-(((2S,3R,4S,6R)-4-(Dimethylamino)-3-hydroxy-6-methyltetrahydro-2H-pyran-2-yl)oxy)-3-(1-isopropylpiperidin-4-yl)-8-methoxy-6,8,10,12,12-pentamethyl-1-oxa-4-azacyclotridecane-11,13-dione], the MIC is 4 to 32 µg/mL (≈ 6.54 to 52.3 µM) in assay [1]; less than 4 µg/mL in assay [2]; less than 4 µg/mL in assay [3]; more than 32 µg/mL in assay [4]; more than 32 µg/mL in assay [5].

For `CO[C@]1(C)C[C@@H](C)CN(C)[C@@H]([C@H]2CNC(=O)C2)COC(=O)C(C)(C)C(=O)[C@H](C)[C@H]1O[C@@H]1O[C@H](C)C[C@H](N(C)C)[C@H]1O` [Compound 8, (3S,6R,8R,9R,10R)-9-(((2S,3R,4S,6R)-4-(dimethylamino)-3-hydroxy-6-methyltetrahydro-2H-pyran-2-yl)oxy)-8-methoxy-4,6,8,10,12,12-hexamethyl-3-((R)-5-oxopyrrolidin-3-yl)-1-oxa-4-azacyclotridecane-11,13-dione], the minimal inhibitory concentration (MIC) in assay [1] was more than 32 µg/mL; in assay [2], less than 4 µg/mL; in assay [3], 4 to 32 µg/mL (≈ 6.85 to 54.8 µM); in assay [4], more than 32 µg/mL; in assay [5] it was more than 32 µg/mL.

Consider `CO[C@]1(C)C[C@@H](C)CN(C)[C@H](C2CCN(C(=O)CN3CCCC3)CC2)COC(=O)C(C)(C)C(=O)[C@H](C)[C@H]1O[C@@H]1O[C@H](C)C[C@H](N(C)C)[C@H]1O` [Compound 9, (3R,6R,8R,9R,10R)-9-(((2S,3R,4S,6R)-4-(dimethylamino)-3-hydroxy-6-methyltetrahydro-2H-pyran-2-yl)oxy)-8-methoxy-4,6,8,10,12,12-hexamethyl-3-(1-(2-(pyrrolidin-1-yl)acetyl)piperidin-4-yl)-1-oxa-4-azacyclotridecane-11,13-dione], for which the MIC in assay [1] was more than 32 µg/mL; in assay [2], 4 to 32 µg/mL (≈ 5.76 to 46 µM); in assay [3] it was 4 to 32 µg/mL (≈ 5.76 to 46 µM); in assay [4] it was more than 32 µg/mL; in assay [5] it was more than 32 µg/mL.

`CO[C@]1(C)C[C@@H](C)CN(C)[C@H](C2CN(C(=O)CN3Cc4ccccc4C3)C2)COC(=O)C(C)(C)C(=O)[C@H](C)[C@H]1O[C@@H]1O[C@H](C)C[C@H](N(C)C)[C@H]1O` [Compound 10, (3R,6R,8R,9R,10R)-9-(((2S,3R,4S,6R)-4-(dimethylamino)-3-hydroxy-6-methyltetrahydro-2H-pyran-2-yl)oxy)-3-(1-(2-(isoindolin-2-yl)acetyl)azetidin-3-yl)-8-methoxy-4,6,8,10,12,12-hexamethyl-1-oxa-4-azacyclotridecane-11,13-dione]: the MIC in assay [1] was 4 to 32 µg/mL (≈ 5.59 to 44.8 µM); in assay [2] it was less than 4 µg/mL; in assay [3] it was 4 to 32 µg/mL (≈ 5.59 to 44.8 µM); in assay [4], more than 32 µg/mL; in assay [5], 4 to 32 µg/mL (≈ 5.59 to 44.8 µM).

`CO[C@]1(C)C[C@@H](C)CN(C)[C@H]([C@H]2CCN(C(C)C)C2)COC(=O)C(C)(C)C(=O)[C@H](C)[C@H]1O[C@@H]1O[C@H](C)C[C@H](N(C)C)[C@H]1O` [Compound 11, (3R,6R,8R,9R,10R)-9-(((2S,3R,4S,6R)-4-(Dimethylamino)-3-hydroxy-6-methyltetrahydro-2H-pyran-2-yl)oxy)-3-((S)-1-isopropylpyrrolidin-3-yl)-8-methoxy-4,6,8,10,12,12-hexamethyl-1-oxa-4-azacyclotridecane-11,13-dione]: the MIC in assay [1] was 4 to 32 µg/mL (≈ 6.54 to 52.3 µM); in assay [2], less than 4 µg/mL; in assay [3] it was less than 4 µg/mL; in assay [4], more than 32 µg/mL; in assay [5] it was more than 32 µg/mL.

For the molecule `CO[C@]1(C)C[C@@H](C)CN(C)[C@@H](C2CCN(CC(C)C)CC2)COC(=O)C(C)(C)C(=O)[C@H](C)[C@H]1O[C@@H]1O[C@H](C)C[C@H](N(C)C)[C@H]1O` [Compound 12, (3S,6R,8R,9R,10R)-9-(((2S,3R,4S,6R)-4-(dimethylamino)-3-hydroxy-6-methyltetrahydro-2H-pyran-2-yl)oxy)-3-(1-isobutylpiperidin-4-yl)-8-methoxy-4,6,8,10,12,12-hexamethyl-1-oxa-4-azacyclotridecane-11,13-dione], the MIC in assay [1] was 4 to 32 µg/mL (≈ 6.25 to 50 µM); in assay [2] it was less than 4 µg/mL; in assay [3], less than 4 µg/mL; in assay [4] it was more than 32 µg/mL; in assay [5] it was more than 32 µg/mL.

As to `CCC(=O)N1CCC([C@@H]2COC(=O)C(C)(C)C(=O)[C@H](C)[C@@H](O[C@@H]3O[C@H](C)C[C@H](N(C)C)[C@H]3O)[C@](C)(OC)C[C@@H](C)CN2C)CC1` [Compound 13, (3R,6R,8R,9R,10R)-9-(((2S,3R,4S,6R)-4-(dimethylamino)-3-hydroxy-6-methyltetrahydro-2H-pyran-2-yl)oxy)-8-methoxy-4,6,8,10,12,12-hexamethyl-3-(1-propionylpiperidin-4-yl)-1-oxa-4-azacyclotridecane-11,13-dione], the MIC in assay [1] was 4 to 32 µg/mL (≈ 6.25 to 50 µM); in assay [2], 4 to 32 µg/mL (≈ 6.25 to 50 µM); in assay [3] it was 4 to 32 µg/mL (≈ 6.25 to 50 µM); in assay [4] it was more than 32 µg/mL; in assay [5], more than 32 µg/mL.

For the molecule `CO[C@]1(C)C[C@@H](C)CN(C)[C@H](C2CN(C(=O)CN3CCC3)C2)COC(=O)C(C)(C)C(=O)[C@H](C)[C@H]1O[C@@H]1O[C@H](C)C[C@H](N(C)C)[C@H]1O` [Compound 14], the MIC in assay [1] is more than 32 µg/mL; in assay [2], less than 4 µg/mL; in assay [3], more than 32 µg/mL; in assay [4], more than 32 µg/mL; in assay [5], more than 32 µg/mL.

Take `CCN1C2CCC1CC([C@@H]1COC(=O)C(C)(C)C(=O)[C@H](C)[C@@H](O[C@@H]3O[C@H](C)C[C@H](N(C)C)[C@H]3O)[C@](C)(OC)C[C@@H](C)CN1C)C2` (stereo partly drawn) [Compound 15, (3R,6R,8R,9R,10R)-9-(((2S,3R,4S,6R)-4-(dimethylamino)-3-hydroxy-6-methyltetrahydro-2H-pyran-2-yl)oxy)-3-(8-ethyl-8-azabicyclo[3.2.1]octan-3-yl)-8-methoxy-4,6,8,10,12,12-hexamethyl-1-oxa-4-azacyclotridecane-11,13-dione]: the MIC in assay [1] was 4 to 32 µg/mL (≈ 6.27 to 50.2 µM); in assay [2] it was less than 4 µg/mL; in assay [3] it was 4 to 32 µg/mL (≈ 6.27 to 50.2 µM); in assay [4], more than 32 µg/mL; in assay [5] it was more than 32 µg/mL.

Regarding `CO[C@]1(C)C[C@@H](C)CN(C)[C@H](C2CN(CC3CCC3)C2)COC(=O)C(C)(C)C(=O)[C@H](C)[C@H]1O[C@@H]1O[C@H](C)C[C@H](N(C)C)[C@H]1O` [Compound 17, (3R,6R,8R,9R,10R)-3-(1-(cyclobutylmethyl)azetidin-3-yl)-9-(((2S,3R,4S,6R)-4-(dimethylamino)-3-hydroxy-6-methyltetrahydro-2H-pyran-2-yl)oxy)-8-methoxy-4,6,8,10,12,12-hexamethyl-1-oxa-4-azacyclotridecane-11,13-dione], the MIC was 4 to 32 µg/mL (≈ 6.41 to 51.3 µM) in assay [1]; less than 4 µg/mL in assay [2]; less than 4 µg/mL in assay [3]; more than 32 µg/mL in assay [4]; 4 to 32 µg/mL (≈ 6.41 to 51.3 µM) in assay [5].

As to `CO[C@]1(C)C[C@@H](C)CN(C)[C@H](c2ccncc2)COC(=O)C(C)(C)C(=O)[C@H](C)[C@H]1O[C@@H]1O[C@H](C)C[C@H](N(C)C)[C@H]1O` [Compound 19, (3R,6R,8R,9R,10R)-9-(((2S,3R,4S,6R)-4-(dimethylamino)-3-hydroxy-6-methyltetrahydro-2H-pyran-2-yl)oxy)-8-methoxy-4,6,8,10,12,12-hexamethyl-3-(pyridin-4-yl)-1-oxa-4-azacyclotridecane-11,13-dione], the MIC in assay [1], in assay [2], in assay [3], in assay [4] and in assay [5] was more than 32 µg/mL throughout.

Source of the values: patent US20220177508A1, “C10-Cyclic Substituted 13-Membered Macrolides and Uses Thereof” (Zikani Therapeutics, Inc., priority 2018, published 2022).
